Data as given in patent US20210045385A1, “PYRIDAZINONE-SUBSTITUTED KETOXIMES AS HERBICIDES” (FMC Corporation, priority 2018, published 2021).

Assays:
Format in all cases: in vivo
[1] = tested on: rice (Oryza sativa); experiment: Test D flooded paddy test, visual plant response rating; settings: 250 g ai/ha, scale 0 to 100 (0 no effect, 100 complete control), 13 to 15 d
Method in brief: (§1)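 Rating is visual, on a 0 (no effect) to 100 (complete control) scale versus controls, taken 13 to 15 d after treatment in a greenhouse. Treatment went into paddy water kept 3 cm above the soil surface, with plants at the 2-leaf stage.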

[2] = tested on: barnyardgrass (Echinochloa crus-galli); experiment: as above; settings: 250 g ai/ha, scale 0 to 100 (0 no effect, 100 complete control), 13 to 15 d
Method in brief: as §1

[3] = tested on: sedge umbrella (small-flower umbrella sedge, Cyperus difformis); experiment: as above; settings: 250 g ai/ha, scale 0 to 100 (0 no effect, 100 complete control), 13 to 15 d
Method in brief: as §1

[4] = tested on: duck salad (Heteranthera limosa); experiment: as above; settings: 250 g ai/ha, scale 0 to 100 (0 no effect, 100 complete control), 13 to 15 d
Method in brief: as §1

[5] = tested on: ragweed (common ragweed, Ambrosia artemisiifolia); experiment: Test C preemergence, visual plant response rating; settings: Test C, 0 is no effect, 100 is complete control
Method in brief: (§2)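 Visual injury on a 0 (no effect) to 100 (complete control) scale versus untreated controls, scored approximately 10 d after treatment under greenhouse conditions. Treatments used surfactant-containing non-phytotoxic solvent formulations, sprayed onto loam–sand soil preemergence or onto one- to two-leaf plants 2–10 cm tall postemergence.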

[6] = tested on: kochia (Bassia scoparia); experiment: Test C preemergence, visual plant response rating; settings: Test C, 0 is no effect, 100 is complete control
Method in brief: as §2

[7] = tested on: barnyardgrass (Echinochloa crus-galli); experiment: Test C preemergence, visual plant response rating; settings: Test C, 0 is no effect, 100 is complete control
Method in brief: as §2

[8] = tested on: pigweed (Amaranthus retroflexus); experiment: Test C preemergence, visual plant response rating; settings: Test C, 0 is no effect, 100 is complete control
Method in brief: as §2

[9] = tested on: foxtail, giant (giant foxtail, Setaria faberi); experiment: Test C preemergence, visual plant response rating; settings: Test C, 0 is no effect, 100 is complete control
Method in brief: as §2

[10] = tested on: Italian ryegrass (Lolium mutiflorum); experiment: Test C preemergence, visual plant response rating; settings: Test C, 0 is no effect, 100 is complete control
Method in brief: as §2

[11] = tested on: ragweed (common ragweed, Ambrosia artemisiifolia); experiment: Test C postemergence, visual plant response rating
Method in brief: as §2

[12] = tested on: kochia (Bassia scoparia); experiment: Test C postemergence, visual plant response rating
Method in brief: as §2

[13] = tested on: barnyardgrass (Echinochloa crus-galli); experiment: Test C postemergence, visual plant response rating
Method in brief: as §2

[14] = tested on: pigweed (Amaranthus retroflexus); experiment: Test C postemergence, visual plant response rating
Method in brief: as §2

[15] = tested on: wheat (Triticum aestivum); experiment: Test C postemergence, visual plant response rating
Method in brief: as §2

[16] = tested on: blackgrass (Alopecurus myosuroides); experiment: Test C postemergence, visual plant response rating
Method in brief: as §2

[17] = tested on: corn (Zea mays); experiment: Test C postemergence, visual plant response rating
Method in brief: as §2

[18] = tested on: galium (catchweed bedstraw, Galium aparine); experiment: Test C postemergence, visual plant response rating
Method in brief: as §2

[19] = tested on: foxtail, giant (giant foxtail, Setaria faberi); experiment: Test C postemergence, visual plant response rating
Method in brief: as §2

[20] = tested on: Italian ryegrass (Lolium mutiflorum); experiment: Test C postemergence, visual plant response rating
Method in brief: as §2

[21] = Test C, postemergence, 125 g ai/ha

Row | SMILES | Plant response rating, Rice (Flood) [1] | Plant response rating, Barnyardgrass (Flood) [2] | Plant response rating, Sedge, Umbrella (Flood) [3] | Plant response rating, Ducksalad (Flood) [4] | Ragweed plant response rating (0 to 100 scale) ([5]; 31 g ai/ha) | Ragweed plant response rating (0 to 100 scale) ([5]; 125 g ai/ha) | Kochia plant response rating (0 to 100 scale) ([6]; 31 g ai/ha) | Kochia plant response rating (0 to 100 scale) ([6]; 125 g ai/ha) | Barnyardgrass plant response rating (0 to 100 scale) ([7]; 31 g ai/ha) | Barnyardgrass plant response rating (0 to 100 scale) ([7]; 125 g ai/ha) | Pigweed plant response rating (0 to 100 scale) ([8]; 31 g ai/ha) | Pigweed plant response rating (0 to 100 scale) ([8]; 125 g ai/ha) | Foxtail, Giant plant response rating (0 to 100 scale) ([9]; 31 g ai/ha) | Foxtail, Giant plant response rating (0 to 100 scale) ([9]; 125 g ai/ha) | Ryegrass, Italian plant response rating (0 to 100 scale) ([10]; 31 g ai/ha) | Ryegrass, Italian plant response rating (0 to 100 scale) ([10]; 125 g ai/ha) | Ragweed plant response rating (0 to 100 scale) ([11]; Postemergence, 31 g ai/ha) | Ragweed plant response rating (0 to 100 scale) [11, 21] | Kochia plant response rating (0 to 100 scale) ([12]; Postemergence, 31 g ai/ha) | Kochia plant response rating (0 to 100 scale) [12, 21] | also measured
1 | CO/N=C(/c1cc(Cl)c(F)c(Cl)c1)c1c(O)c(C)nn(C)c1=O [Compound 289] | 0 | 0 | 0 | 0 | 0 | 30 | 0 | 0 | 0 | 0 | 0 | 40 | 0 | 10 | 0 | 30 | 40 | 90 | 20 | 40 | Barnyardgrass plant response rating (0 to 100 scale) ([13]; Postemergence, 31 g ai/ha): 0; Barnyardgrass plant response rating (0 to 100 scale) [13, 21]: 10; Pigweed plant response rating (0 to 100 scale) ([14]; Postemergence, 31 g ai/ha): 0; Pigweed plant response rating (0 to 100 scale) [14, 21]: 0; Wheat plant response rating (0 to 100 scale) ([15]; Postemergence, 31 g ai/ha): 0; Wheat plant response rating (0 to 100 scale) [15, 21]: 0; Blackgrass plant response rating (0 to 100 scale) ([16]; Postemergence, 31 g ai/ha): 0; Blackgrass plant response rating (0 to 100 scale) [16, 21]: 0; Corn plant response rating (0 to 100 scale) ([17]; Postemergence, 31 g ai/ha): 0; Corn plant response rating (0 to 100 scale) [17, 21]: 0; Galium plant response rating (0 to 100 scale) ([18]; Postemergence, 31 g ai/ha): 70; Galium plant response rating (0 to 100 scale) [18, 21]: 100; Foxtail, Giant plant response rating (0 to 100 scale) ([19]; Postemergence, 31 g ai/ha): 0; Foxtail, Giant plant response rating (0 to 100 scale) [19, 21]: 0; Ryegrass, Italian plant response rating (0 to 100 scale) ([20]; Postemergence, 31 g ai/ha): 0; Ryegrass, Italian plant response rating (0 to 100 scale) [20, 21]: 60
2 | CO/N=C(\c1cccc(/C=C\Cl)c1)c1c(O)c(C)nn(C)c1=O [Compound 288] | 0 | 0 | 0 | 0 | 10 | 20 | 0 | 30 | 70 | 100 | 0 | 0 | 40 | 100 | 70 | 100 | 30 | 60 | 10 | 30 | Barnyardgrass plant response rating (0 to 100 scale) ([13]; Postemergence, 31 g ai/ha): 70; Barnyardgrass plant response rating (0 to 100 scale) [13, 21]: 100; Pigweed plant response rating (0 to 100 scale) ([14]; Postemergence, 31 g ai/ha): 0; Pigweed plant response rating (0 to 100 scale) [14, 21]: 30; Wheat plant response rating (0 to 100 scale) ([15]; Postemergence, 31 g ai/ha): 0; Wheat plant response rating (0 to 100 scale) [15, 21]: 0; Blackgrass plant response rating (0 to 100 scale) ([16]; Postemergence, 31 g ai/ha): 40; Blackgrass plant response rating (0 to 100 scale) [16, 21]: 40; Corn plant response rating (0 to 100 scale) ([17]; Postemergence, 31 g ai/ha): 10; Corn plant response rating (0 to 100 scale) [17, 21]: 20; Galium plant response rating (0 to 100 scale) ([18]; Postemergence, 31 g ai/ha): 60; Galium plant response rating (0 to 100 scale) [18, 21]: 80; Foxtail, Giant plant response rating (0 to 100 scale) ([19]; Postemergence, 31 g ai/ha): 80; Foxtail, Giant plant response rating (0 to 100 scale) [19, 21]: 90; Ryegrass, Italian plant response rating (0 to 100 scale) ([20]; Postemergence, 31 g ai/ha): 40; Ryegrass, Italian plant response rating (0 to 100 scale) [20, 21]: 100
3 | CO/N=C(/c1cccc(/C=C/Cl)c1)c1c(O)c(C)nn(C)c1=O [Compound 285] | 0 | 0 | 0 | 0 | 0 | 10 | 0 | 0 | 0 | 0 | 0 | 0 | 0 | 0 | 0 | 10 | 30 | 60 | 10 | 20 | Barnyardgrass plant response rating (0 to 100 scale) ([13]; Postemergence, 31 g ai/ha): 20; Barnyardgrass plant response rating (0 to 100 scale) [13, 21]: 30; Pigweed plant response rating (0 to 100 scale) ([14]; Postemergence, 31 g ai/ha): 0; Pigweed plant response rating (0 to 100 scale) [14, 21]: 70; Wheat plant response rating (0 to 100 scale) ([15]; Postemergence, 31 g ai/ha): 0; Wheat plant response rating (0 to 100 scale) [15, 21]: 0; Blackgrass plant response rating (0 to 100 scale) ([16]; Postemergence, 31 g ai/ha): 0; Blackgrass plant response rating (0 to 100 scale) [16, 21]: 10; Corn plant response rating (0 to 100 scale) ([17]; Postemergence, 31 g ai/ha): 0; Corn plant response rating (0 to 100 scale) [17, 21]: 0; Galium plant response rating (0 to 100 scale) ([18]; Postemergence, 31 g ai/ha): 50; Galium plant response rating (0 to 100 scale) [18, 21]: 60; Foxtail, Giant plant response rating (0 to 100 scale) ([19]; Postemergence, 31 g ai/ha): 10; Foxtail, Giant plant response rating (0 to 100 scale) [19, 21]: 20; Ryegrass, Italian plant response rating (0 to 100 scale) ([20]; Postemergence, 31 g ai/ha): 0; Ryegrass, Italian plant response rating (0 to 100 scale) [20, 21]: 0
